Where a SMILES comes first, the peptide text is derived from it. [ ]: non-standard residue; d: D form. Phe(4-NO2) = N[C@@H](Cc1ccc([N+](=O)[O-])cc1)C(=O)O; Oic = O=C(O)[C@@H]1C[C@@H]2CCCC[C@@H]2N1; Phe(4-F) = N[C@@H](Cc1ccc(F)cc1)C(=O)O; Tic = O=C(O)[C@@H]1Cc2ccccc2CN1; Dap = NC[C@H](N)C(=O)O; βAla = NCCC(=O)O Some results are limits rather than exact numbers.

In the first experiment the test system is Staphylococcus aureus Methicillin/Gentamicin/Tetracycline Resistant (ATCC 33592). The note with it: in vitro MIC; tested at 100, 30, 10, 3, 1, 0.3 and 0.1 μM in 1% DMSO.
With `CC[C@H](C)[C@H](NC(=O)CN)C(=O)NCC(=O)N[C@@H](CCCCN)C(=O)N[C@@H](Cc1ccccc1)C(=O)N[C@@H](CC(C)C)C(=O)N[C@@H](Cc1c[nH]cn1)C(=O)N[C@@H](CO)C(=O)N[C@@H](C)C(=O)NCC(=O)N[C@@H](CCCCN)C(=O)N[C@@H](Cc1ccccc1)C(=O)NCC(=O)N[C@@H](CCCCN)C(=O)N[C@@H](C)C(=O)N[C@@H](Cc1ccccc1)C(=O)N[C@H](C(=O)NCC(=O)N[C@@H](CCC(=O)O)C(=O)N[C@H](C(=O)N[C@@H](CCSC)C(=O)N[C@@H](CCCCN)C(=O)N[C@@H](CO)C(=O)O)[C@@H](C)CC)C(C)C` [Magainin I, magainin I, reference compound] (H-GIGKFLHSAGKFGKAFVGEIMKS-OH; N-terminus and C-terminus assumed), the “Minimum Inhibitory Concentration Staphylococcus aureus ME/GM/TC resistant” value was greater than 100 µM.

A further experiment has as its system Mycobacterium ranae (ATCC 110). The following applies: ATCC 110.
As to `CC(=O)NCC(=O)N[C@@H](Cc1ccccc1)C(=O)N1Cc2ccccc2C[C@H]1C(=O)N1Cc2ccccc2C[C@H]1C(=O)NCC(=O)N[C@@H](CCCCN)C(=O)N1Cc2ccccc2C[C@H]1C(=O)N1Cc2ccccc2C[C@H]1C(=O)NCC(=O)N[C@@H](Cc1ccccc1)C(=O)N1Cc2ccccc2C[C@H]1C(=O)N1Cc2ccccc2C[C@H]1C(=O)NCC(=O)N[C@@H](CCCCN)C(=O)N1Cc2ccccc2C[C@H]1C(=O)N[C@@H](CCCCN)C(=O)N[C@@H](CCCCN)C(=O)N[C@@H](CCCCN)C(=O)N[C@@H](CCCCN)C(N)=O` [FKAB-1Gg2, Ac-GF-Tic-Tic-GK-Tic-Tic-GF-Tic-Tic-GK-Tic-KKKK-CONH2] (Ac-GF[Tic][Tic]GK[Tic][Tic]GF[Tic][Tic]GK[Tic]KKKK-NH2), the “Minimum Inhibitory Concentration Mycobacterium ranae” value is 10 µM.
For `CC(=O)NCCC(=O)N[C@@H](Cc1ccc(F)cc1)C(=O)N1Cc2ccccc2C[C@H]1C(=O)N1[C@H](C(=O)NCCC(=O)N[C@@H](CCCCN)C(=O)N2Cc3ccccc3C[C@H]2C(=O)N2[C@H](C(=O)NCCC(=O)N[C@@H](Cc3ccc(F)cc3)C(=O)N3Cc4ccccc4C[C@H]3C(=O)N3[C@H](C(=O)NCCC(=O)N[C@@H](CCCCN)C(=O)N4Cc5ccccc5C[C@H]4C(=O)N[C@@H](CN)C(=O)N[C@@H](CN)C(=O)N[C@@H](CN)C(=O)N[C@@H](CN)C(N)=O)C[C@@H]4CCCC[C@@H]43)C[C@@H]3CCCC[C@@H]32)C[C@@H]2CCCC[C@@H]21` [FKAB-1Gv, Ac-βAla-Fpa-Tic-Oic-βAla-K-Tic-Oic-βAla-Fpa-Tic-Oic-βAla-K-Tic-Dpr-Dpr-Dpr-Dpr-CONH2] (Ac-[βAla][Phe(4-F)][Tic][Oic][βAla]K[Tic][Oic][βAla][Phe(4-F)][Tic][Oic][βAla]K[Tic][Dap][Dap][Dap][Dap]-NH2), the “Minimum Inhibitory Concentration Mycobacterium ranae” value turned out to be 30 µM.
Regarding `CC(=O)NCC(=O)N[C@@H](Cc1ccccc1)C(=O)N1Cc2ccccc2C[C@H]1C(=O)N1[C@H](C(=O)NCC(=O)N[C@H](CCCCN)C(=O)N2Cc3ccccc3C[C@H]2C(=O)N2[C@H](C(=O)NCC(=O)N[C@@H](Cc3ccccc3)C(=O)N3Cc4ccccc4C[C@H]3C(=O)N3[C@H](C(=O)NCC(=O)N[C@H](CCCCN)C(=O)N4Cc5ccccc5C[C@H]4C(=O)N[C@@H](CCCCN)C(=O)N[C@@H](CCCCN)C(=O)N[C@@H](CCCCN)C(=O)N[C@@H](CCCCN)C(N)=O)C[C@@H]4CCCC[C@@H]43)C[C@@H]3CCCC[C@@H]32)C[C@@H]2CCCC[C@@H]21` [FKAB-1G3, Ac-GF-Tic-Oic-G-dK-Tic-Oic-GF-Tic-Oic-G-dK-Tic-KKKK-CONH2] (Ac-GF[Tic][Oic]G[dK][Tic][Oic]GF[Tic][Oic]G[dK][Tic]KKKK-NH2), the “Minimum Inhibitory Concentration Mycobacterium ranae” value is 10 µM.
The same measure, in the same setting: then `CC(=O)N[C@@H](CCCCN)C(=O)N[C@@H](CCCCN)C(=O)N[C@@H](CCCCN)C(=O)N[C@@H](CCCCN)C(=O)NCC(=O)N[C@@H](Cc1ccccc1)C(=O)N1Cc2ccccc2C[C@H]1C(=O)N1[C@H](C(=O)NCC(=O)N[C@@H](CCCCN)C(=O)N2Cc3ccccc3C[C@H]2C(=O)N2[C@H](C(=O)NCC(=O)N[C@@H](Cc3ccccc3)C(=O)N3Cc4ccccc4C[C@H]3C(=O)N3[C@H](C(=O)NCC(=O)N[C@@H](CCCCN)C(=O)N4Cc5ccccc5C[C@H]4C(N)=O)C[C@@H]4CCCC[C@@H]43)C[C@@H]3CCCC[C@@H]32)C[C@@H]2CCCC[C@@H]21` [FBAB-1Gq, Ac-KKKK-GF-Tic-Oic-GK-Tic-Oic-GF-Tic-Oic-GK-Tic-CONH2] (Ac-KKKKGF[Tic][Oic]GK[Tic][Oic]GF[Tic][Oic]GK[Tic]-NH2), with 3 µM.
Still for that read-out and setting: the result for `CC(=O)NCC(=O)N[C@@H](Cc1ccccc1)C(=O)N1[C@H](C(=O)N2Cc3ccccc3C[C@H]2C(=O)NCC(=O)N[C@@H](CCCCN)C(=O)N2[C@H](C(=O)N3Cc4ccccc4C[C@H]3C(=O)NCC(=O)N[C@@H](Cc3ccccc3)C(=O)N3[C@H](C(=O)N4Cc5ccccc5C[C@H]4C(=O)NCC(=O)N[C@@H](CCCCN)C(=O)N4Cc5ccccc5C[C@H]4C(=O)N[C@@H](CCCCN)C(=O)N[C@@H](CCCCN)C(=O)N[C@@H](CCCCN)C(=O)N[C@@H](CCCCN)C(N)=O)C[C@@H]4CCCC[C@@H]43)C[C@@H]3CCCC[C@@H]32)C[C@@H]2CCCC[C@@H]21` [FKABB-1G1, Ac-GF-Oic-Tic-GK-Oic-Tic-GF-Oic-Tic-GK-Tic-KKKK-CONH2] (Ac-GF[Oic][Tic]GK[Oic][Tic]GF[Oic][Tic]GK[Tic]KKKK-NH2) reads 30 µM.
On the same count and under the same terms, then `CC(=O)NCC(=O)N[C@H](Cc1ccccc1)C(=O)N1Cc2ccccc2C[C@H]1C(=O)N1[C@H](C(=O)NCC(=O)N[C@@H](CCCCN)C(=O)N2Cc3ccccc3C[C@H]2C(=O)N2[C@H](C(=O)NCC(=O)N[C@H](Cc3ccccc3)C(=O)N3Cc4ccccc4C[C@H]3C(=O)N3[C@H](C(=O)NCC(=O)N[C@@H](CCCCN)C(=O)N4Cc5ccccc5C[C@H]4C(=O)N[C@@H](CCCCN)C(=O)N[C@@H](CCCCN)C(=O)N[C@@H](CCCCN)C(=O)N[C@@H](CCCCN)C(N)=O)C[C@@H]4CCCC[C@@H]43)C[C@@H]3CCCC[C@@H]32)C[C@@H]2CCCC[C@@H]21` [FKAB-1G2, Ac-G-dF-Tic-Oic-GK-Tic-Oic-G dF-Tic-Oic-GK-Tic-KKKK-CONH2] (Ac-G[dF][Tic][Oic]GK[Tic][Oic]G[dF][Tic][Oic]GK[Tic]KKKK-NH2), with 10 µM; and `CC(=O)NCC(=O)N[C@@H](Cc1ccc([N+](=O)[O-])cc1)C(=O)N1Cc2ccccc2C[C@H]1C(=O)N1[C@H](C(=O)NCC(=O)N[C@@H](CCCCN)C(=O)N2Cc3ccccc3C[C@H]2C(=O)N2[C@H](C(=O)NCC(=O)N[C@@H](Cc3ccc([N+](=O)[O-])cc3)C(=O)N3Cc4ccccc4C[C@H]3C(=O)N3[C@H](C(=O)NCC(=O)N[C@@H](CCCCN)C(=O)N4Cc5ccccc5C[C@H]4C(=O)N[C@@H](CCCCN)C(=O)N[C@@H](CCCCN)C(=O)N[C@@H](CCCCN)C(=O)N[C@@H](CCCCN)C(N)=O)C[C@@H]4CCCC[C@@H]43)C[C@@H]3CCCC[C@@H]32)C[C@@H]2CCCC[C@@H]21` [FKAB-1Go2, Ac-G-Nph-Tic-Oic-GK-Tic-Oic-G-Nph-Tic-Oic-GK-Tic-KKKK-CONH2] (Ac-G[Phe(4-NO2)][Tic][Oic]GK[Tic][Oic]G[Phe(4-NO2)][Tic][Oic]GK[Tic]KKKK-NH2), with 10 µM.

These data come from patent US20120197004A1, “NOVEL ANTI-MICROBIAL PEPTIDOMIMETIC COMPOUNDS AND METHODS TO CALCULATE ANTI-MICROBIAL ACTIVITY” (priority 2006, published 2012).
